Source: patent US9458430B2, “Differentiation of pluripotent stem cells” (Janssen Biotech, Inc., priority 2010, dated 2016)

Columns and labels:
Type in all cases: cell-based
[1] = tested on: human embryonic stem cells line H1; experiment: Real-time PCR of pancreatic related genes in H1 cells differentiated by the Example 1 protocol
Description: FIGS. 1A to 1H show real-time PCR data obtained from samples obtained from cells at stages III-IV, of the protocol outlined in Example 1, for PAX4 (FIG. 1A), NGN3 (FIG. 1B), PDX1 (FIG. 1C), NEUROD (FIG. 1D), NKX6.1 (FIG. 1E), CDX2 (FIG. 1F), and Albumin (FIG. 1G). The y-axis is fold expression over undifferentiated H1 cells.
Cells of the human embryonic stem cells line H1 (p40-p50) were cultured on MATRIGEL®-coated dishes (1:30 dilution) (BD Biosciences; Cat #356231) in MEF-CM (mouse embryonic fibroblast conditioned medium) as colonies and differentiated into pancreatic endocrine precursor cells as follows: • a. Stage I (Definitive Endoderm): Human embryonic stem cells were cultured in RPMI medium supplemented with 2% fatty acid-free BSA (Catalog#68700, Proliant, IA), and 100 ng/ml activin A (R&D Systems, MN) plus 20 ng/ml WNT-3a (Catalog#1324-WN-002, R&D Systems, MN) plus 8 ng/ml of bFGF (Catalog#100-18B, PeproTech, NJ), for one day, followed by treatment with RPMI medium supplemented with 2% BSA and 100 ng/ml activin A plus 8 ng/ml of bFGF for an additional two days, then • b. Stage II (Primitive gut tube): Cells were treated with RPMI+2% fatty acid-free BSA and 50 ng/ml FGF7, for two days, then • c. Stage III (Posterior foregut): Cells were treated with DMEM/High-Glucose supplemented with 1:200 dilution of ITS-X (Invitrogen, CA) and 0.1% BSA (Lipid Rich) (Invitrogen, Ca No. 11021-045), 50 ng/ml FGF7, 0.25 μM SANT-1, 2 μM Retinoic acid (RA) (Sigma, MO), 100 ng/ml of Noggin (R & D Systems, MN), 2.5 μM 4-[4-(4-Fluorophenyl)-1-(3-phenylpropyl)-5-pyridin-4-yl-1H-imidazol-2-yl]but-3-yn-1-ol (a P38 inhibitor disclosed in U.S. Pat. No. 6,521,655), and activin A at 20 ng/ml for five days, then • d. Stage IV (Pancreatic endocrine precursor): Cells were treated with DMEM/High-Glucose supplemented with 1:200 dilution of ITS-X (Invitrogen, CA) and 0.1% BSA (Invitrogen, Ca), 100 ng/ml Noggin, 1 μM ALK5 inhibitor (SD-208, disclosed in Molecular Pharmacology 2007 72:152-161), 500 nM TPB (α-Amyloid Precursor Protein Modulator) (Catalogue #565740, EMD, CA), and 10-100 nM of the CYP26A inhibitor N-{4-[2-Ethyl-1-(1H-1,2,4-triazol-1-yl)butyl]phenyl}-1,3-benzothiazol-2-amine, and 10-100 nM Vitamin A (Catalogue#R7632, Sigma, MO) for four days, or
In some of the cultures, the Stage IV was extended to six days. mRNA was isolated at stages III and IV for real-time PCR analysis of pancreatic related genes.

[2] = tested on: human embryonic stem cells line H1; experiment: NGN3 immunostaining at stage IV of the Example 1 protocol; details: 100 nM of the CYP26A inhibitor vs control
[3] = tested on: human embryonic stem cells line H1; experiment: Real-time PCR of pancreatic related genes in H1 cells differentiated by the Example 2 protocol
Description: FIGS. 2A to 2E show real-time PCR data obtained from samples obtained from cells at stages III-IV, of the protocol outlined in Example 2, for NGN3 (FIG. 2A), NEUROD (FIG. 2B), CDX2 (FIG. 2C), NKX6.1 (FIG. 2D) and, PDX1 (FIG. 2E). The y-axis is fold expression over undifferentiated H1 cells.
Cells of the human embryonic stem cells line H1 (p40-p52) were seeded as single cells at a density of 100000 cells/cm^2 on MATRIGEL®-coated dishes (1:30 dilution) (BD Biosciences; Cat #356231) in MEF-CM (mouse embryonic fibroblast conditioned media supplemented) with 16 ng/ml of FGF2 (Catalog#100-18B, PeproTech, NJ) and 10 μM of Y27632 (Rock inhibitor, Catalogue #Y0503, Sigma, MO). 72 hours post seeding, cultures were differentiated into definitive endoderm (DE) as follows: • a. Stage I (Definitive Endoderm): Human embryonic stem cells were treated with MCDB-131 (Catalogue#10372-019, Invitrogen, CA) medium supplemented with 2% fatty acid-free BSA (Catalog#68700, Proliant, IA), 0.0025 g/ml sodium bicarbonate (Catalogue #S3187, Sigma, MO), 1× GlutaMax™ (Catalogue #35050-079, Invitrogen, Ca) and 100 ng/ml activin A (R&D Systems, MN) plus 20 ng/ml WNT-3a (Catalog#1324-WN-002, R&D Systems, MN) for one day, followed by treatment with MCDB-131 medium supplemented with 2% BSA, sodium bicarbonate, Glutamax, and 100 ng/ml activin A for an additional three days, then • b. Stage II (Primitive gut tube): Cells were treated with MCDB-131+2% fatty acid-free BSA and 50 ng/ml FGF7 and for three days, then • c. Stage III (Posterior foregut): Cells were treated with MCDB-131/High-Glucose (25 mM glucose) supplemented with 1:200 dilution of ITS-X (Invitrogen, CA), 1× GlutaMax™ (Catalogue #35050-079, Invitrogen, Ca), 0.0025 g/ml sodium bicarbonate (Catalogue #S3187, Sigma, MO), 0.1% BSA (Lipid Rich) (Invitrogen, Ca No. 11021-045), 50 ng/ml FGF7, 0.25 μM SANT-1, 2 μM Retinoic acid (RA) (Sigma, MO), 2.5 μM 4-[4-(4-Fluorophenyl)-1-(3-phenylpropyl)-5-pyridin-4-yl-1H-imidazol-2-yl]but-3-yn-1-ol (a p38 inhibitor, disclosed in U.S. Pat. No. 6,521,655), 100 nM LDN-193189 (BMP receptor inhibitor, Catalogue #04-0019, Stemgent, CA), 500 nM of the CYP26A inhibitor N-{4-[2-Ethyl-1-(1H-1,2,4-triazol-1-yl)butyl]phenyl}-1,3-benzothiazol-2-amine, and activin A at 20 ng/ml for four days, then • d. Stage IV (Pancreatic endocrine precursor): Cells were treated MCDB-131/High-Glucose (25 mM glucose) supplemented with 1:200 dilution of ITS-X (Invitrogen, CA) and 0.1% BSA (Invitrogen, Ca), 1× GlutaMax™ (Catalogue #35050-079, Invitrogen, Ca), 0.0025 g/ml sodium bicarbonate (Catalogue #S3187, Sigma, MO), 1 μM ALK5 inhibitor (SD-208, disclosed in Molecular Pharmacology 2007 72:152-161), 500 nM PDBu (PKC activator) (Catalogue #P1269, Sigma, MO), 100 nM LDN-193189 (BMP receptor inhibitor, Catalogue #04-0019, Stemgent, CA), 0.25 μM SANT-1 (#S4572, Sigma, MO), and 500 nM of the CYP26A inhibitor N-{4-[2-Ethyl-1-(1H-1,2,4-triazol-1-yl)butyl]phenyl}-1,3-benzothiazol-2-amine for seven days, or • e. Stage IV (Pancreatic endocrine precursor): Cells were treated MCDB-131/High-Glucose (25 mM glucose) supplemented with 1:200 dilution of ITS-X (Invitrogen, CA) and 0.1% BSA (Invitrogen, Ca), 1× GlutaMax™ (Catalogue #35050-079, Invitrogen, Ca), 0.0025 g/ml sodium bicarbonate (Catalogue #S3187, Sigma, MO), 1 μM ALK5 inhibitor (SD-208, disclosed in Molecular Pharmacology 2007 72:152-161), 500 nM PDBu (PKC activator) (Catalogue #P1269, Sigma, MO), 100 nM LDN-193189 (BMP receptor inhibitor, Catalogue #04-0019, Stemgent, CA), 0.25 μM SANT-1 (#S4572, Sigma, MO) for seven days.
mRNA was isolated at stages III and IV for real-time PCR analysis of pancreatic related genes. Similar to the results observed in Example 1 above, addition of CYP26A inhibitor to stage IV enhanced expression of pancreatic endocrine precursor markers, such as NGN3 and NeuroD. (See FIG. 2A to 2E).

[4] = added at stage IV, 10-100 nM, mRNA, real-time PCR, dose dependent
[5] = added at stage IV, mRNA, real-time PCR
[6] = 500 nM added to both stages III and IV
[7] = 500 nM added to stage III in the presence of retinoic acid

`CCC(CC)[C@H](c1ccc(Nc2nc3ccccc3s2)cc1)n1cncn1` (stereo in doubt) [CYP26A inhibitor, N-{4-[2-Ethyl-1-(1H-1,2,4-triazol-1-yl)butyl]phenyl}-1,3-benzothiazol-2-amine] was tested, and the “expression of endocrine precursor marker NGN3” value [1, 4] was “significantly boosted”, the “expression of endocrine precursor marker NeuroD” value [1, 4] was “significantly boosted” and the “expression of endocrine precursor marker Pax4” value [1, 4] was “significantly boosted”. The “expression of pancreatic endoderm marker NKX6.1” value [1, 4] was “significantly boosted”, the “expression of CDX2 (an intestinal marker)” value [1, 5] was “decreased” and the “expression of albumin (a liver marker)” value [1, 5] was “decreased”. The “expression of NGN3 by immunostaining” value [2] was “significant boost”, the “expression of NGN3” value [3, 6] was “further enhanced” and the “expression of NeuroD” value [3, 6] was “further enhanced”. The “expression of CDX2” value [3, 7] was “enhancing”, the “expression of NKX6.1” value [3, 7] was “significantly down regulated” and the “expression of PDX-1” value [3, 7] was “significantly down regulated”. The “expression of pancreatic endocrine precursor marker NGN3” value ([3]; 500 nM added to stage IV) was “enhanced” and the “expression of pancreatic endocrine precursor marker NeuroD” value ([3]; 500 nM added to stage IV) was “enhanced”.

In the case of Vitamin A, the “expression of pancreatic endoderm or endocrine precursor markers” value ([1]; vitamin A 10-100 nM added along with the CYP26A inhibitor at stage IV) is reported as “did not significantly modify”.
